In paper PMC9609429 (Pharmaceuticals, 2022):

Legend:
normotensive rats = assay: Effect on a normal electrocardiogram in rats; format: in vivo; set-up: Rate: unit not given here; details: rat; for PR / QRS: in ms (unit assumed)
Description: To verify the influence of the tested compound on the normal electrocardiogram (ECG), the experiment was performed. Aspel ASCARD apparatus (standard II lead, with tape speed 50 mm/s and voltage calibration 1 mV = 1 cm) was used for ECG measurements. Normotensive rats were anesthetized with thiopental (75 mg/kg ip). The ECG was recorded prior and 5, 10, 15, 20, 30, 40, 50, 60, and 80 min after intraperitoneal administration of the tested compound. The influence on PQ, QTc interval, QRS complex, and heart rate was evaluated. Bazzett’s formula, QTc = QT/√RR, was used to calculate QTc.

α1-adrenoceptor = α1-adrenoceptor radioligand binding assay ([3H]-prazosin, rat cerebral cortex); details: rat cortex tissue
Description: (§1) The α1-, α2-, and β1-adrenoceptor radioligand binding assay was carried out on the rat cerebral cortex. [^3H]-prazosin (19.5 Ci/mmol, α1-adrenoceptor), [^3H]-clonidine (70.5 Ci/mmol, α2-adrenoceptor), and [^3H]-CGP-12177 (48 Ci/mmol, β1-adrenergic receptor) were used as specific ligands. The brains were homogenized using ULTRA-TURRAX homogenizer in 10 mL of an ice-cold 50 mM Tris–HCl buffer (pH 7.6). Homogenates were centrifuged at 20,000× g for 20 min (0–4 °C). Next, the cell pellet was resuspended in the Tris–HCl buffer and centrifuged again. Radioligand binding assays were performed in plates (MultiScreen/Millipore). The final incubation mixture (volume 300 μL) consisted of 240 μL of the tissue suspension, 30 μL of radioligand solution, and 30 μL of the buffer containing 7–8 concentrations of the tested compound. […] The incubation was terminated by rapid filtration through Whatman GF/C filters using a vacuum manifold (Millipore). The filters were then washed twice with the assay buffer and placed in scintillation vials with a liquid scintillation cocktail. Radioactivity was measured in a WALLAC 1409 DSA liquid scintillation counter (Perkin Elmer, Waltham, MA, USA). All the assays were made in duplicates and the inhibitory constants (Ki) were estimated.

β1-adrenergic receptor = target: T1, β1-adrenergic receptor (Rattus norvegicus, UniProt P18090); assay: β1-adrenoceptor radioligand binding assay ([3H]-CGP-12177, rat cerebral cortex)
T1 construct: from tissue; host or cells: rat cerebral cortex homogenate
Description: as §1, with “[^3H]-prazosin (19.5 Ci/mmol, α1-adrenoceptor), [^3H]-clonidine (70.5 Ci/mmol, α2-adrenoceptor), and [^3H]-CGP-12177 (48 Ci/mmol, β1-adrenergic receptor) were used as specific ligands.” left out, “Radioactivity was measured in a WALLAC 1409 DSA liquid scintillation counter (Perkin Elmer, Waltham, MA, USA).” left out

T1 sequence (P18090 whole entry): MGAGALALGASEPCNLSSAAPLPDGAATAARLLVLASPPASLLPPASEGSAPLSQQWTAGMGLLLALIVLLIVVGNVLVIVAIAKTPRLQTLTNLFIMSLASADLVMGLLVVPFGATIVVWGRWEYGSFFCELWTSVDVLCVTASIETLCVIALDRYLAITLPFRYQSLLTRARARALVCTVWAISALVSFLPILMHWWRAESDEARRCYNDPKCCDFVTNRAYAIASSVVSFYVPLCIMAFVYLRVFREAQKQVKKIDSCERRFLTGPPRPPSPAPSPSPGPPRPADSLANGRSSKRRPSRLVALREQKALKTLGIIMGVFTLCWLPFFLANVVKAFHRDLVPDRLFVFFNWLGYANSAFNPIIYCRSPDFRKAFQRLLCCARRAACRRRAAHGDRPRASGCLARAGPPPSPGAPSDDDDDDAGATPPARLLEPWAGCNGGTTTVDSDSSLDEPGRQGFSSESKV

## CCC(CN1CCN(c2ccccc2OC)CC1)NCCCOc1c(C)cccc1C.Cl.Cl (centres unmarked) [HBK-10, N-(3-(2,6-dimethylphenoxy)propyl)-1-(4-(2-methoxyphenyl)piperazin-1-yl)butan-2-amine dihydrochloride]
Normotensive rats
  dose influencing normal ECG relative to median effective dose in adrenaline-induced arrhythmia model: 160 fold
Normotensive rats; 10 mg/kg
  effect on PR: no effect
  effect on QRS: no effect
  effect on QTc: no effect
  effect on heart rate: no effect
Normotensive rats; 10 mg/kg ip, 0 min
  QTc: 215.3 ± 19.3
  Rate: 357.1 ± 22.6
  PR: 53.9 ± 2.8
  QRS: 22.6 ± 1.8
Normotensive rats; 10 mg/kg ip, 5 min
  QTc: 213.2 ± 20.8
  Rate: 347.3 ± 25.2
  PR: 53.0 ± 3.3
  QRS: 21.5 ± 1.4
Normotensive rats; 10 mg/kg ip, 10 min
  QTc: 214.4 ± 20.0
  Rate: 347.9 ± 29.2
  PR: 55.8 ± 2.0
  QRS: 23.2 ± 3.6
Normotensive rats; 10 mg/kg ip, 15 min
  QTc: 212.4 ± 12.3
  Rate: 345.0 ± 32.7
  PR: 54.9 ± 2.4
  QRS: 23.5 ± 2.6
Normotensive rats; 10 mg/kg ip, 20 min
  QTc: 216.7 ± 13.8
  Rate: 343.4 ± 33.6
  PR: 53.1 ± 4.4
  QRS: 23.6 ± 2.9
Normotensive rats; 10 mg/kg ip, 30 min
  QTc: 213.7 ± 19.0
  Rate: 338.5 ± 26.3
  PR: 52.2 ± 4.4
  QRS: 22.9 ± 1.6
Normotensive rats; 10 mg/kg ip, 40 min
  QTc: 221.4 ± 16.9
  Rate: 337.5 ± 25.0
  PR: 55.6 ± 2.6
  QRS: 24.5 ± 1.8
Normotensive rats; 10 mg/kg ip, 50 min
  QTc: 218.8 ± 11.8
  Rate: 342.2 ± 25.8
  PR: 53.6 ± 4.4
  QRS: 23.9 ± 2.5
Normotensive rats; 10 mg/kg ip, 60 min
  QTc: 217.4 ± 22.0
  Rate: 344.5 ± 28.9
  PR: 54.7 ± 3.1
  QRS: 23.2 ± 1.9
Normotensive rats; 10 mg/kg ip, 80 min
  QTc: 218.3 ± 25.5
  Rate: 350.7 ± 28.1
  PR: 54.9 ± 4.2
  QRS: 22.0 ± 1.4
Normotensive rats; 20 mg/kg
  effect on PR: did not affect
  effect on QRS: did not affect
Normotensive rats; 20 mg/kg ip, 0 min
  QTc: 198.4 ± 6.1
  Rate: 317.4 ± 26.0
  PR: 53.1 ± 2.8
  QRS: 21.8 ± 1.7
Normotensive rats; 20 mg/kg ip, 5 min
  QTc: 190.9 ± 8.4
  Rate: 304.2 ± 32.0
  PR: 52.4 ± 3.4
  QRS: 20.9 ± 1.2
Normotensive rats; 20 mg/kg ip, 10 min
  QTc: 187.8 ± 14.7
  Rate: 278.4 ± 41.8
  PR: 55.3 ± 1.7
  QRS: 22.7 ± 3.4
Normotensive rats; 20 mg/kg ip, 15 min
  QTc: 179.4 ± 16.4
  Rate: 256.2 ± 52.1
  PR: 54.2 ± 2.1
  QRS: 22.8 ± 2.2
Normotensive rats; 20 mg/kg ip, 20 min
  QTc: 178.9 ± 21.9
  Rate: 249.9 ± 53.5
  PR: 52.1 ± 4.2
  QRS: 22.7 ± 2.5
Normotensive rats; 20 mg/kg ip, 30 min
  QTc: 178 ± 21.6 ms
  Rate: 246.5 ± 55.6
  PR: 51.3 ± 4.4
  QRS: 22.0 ± 1.5
Normotensive rats; 20 mg/kg ip, 40 min
  QTc: 175.7 ± 20.5
  Rate: 242.1 ± 53.5
  PR: 54.6 ± 2.4
  QRS: 23.6 ± 1.5
Normotensive rats; 20 mg/kg ip, 50 min
  QTc: 179.3 ± 20.7
  Rate: 239.2 ± 55.4
  PR: 52.5 ± 4.6
  QRS: 22.9 ± 2.3
Normotensive rats; 20 mg/kg ip, 60 min
  Rate: 239.5 ± 56.6
  PR: 53.7 ± 3.0
  QRS: 22.1 ± 1.7
Normotensive rats; 20 mg/kg ip, 80 min
  QTc: 173.0 ± 6.6
  Rate: 241.0 ± 64.1
  PR: 53.8 ± 4.1
  QRS: 21.0 ± 1.3
Normotensive rats; 20 mg/kg, 10 min after administration
  decrease of heart rate: 12.3%
Normotensive rats; 20 mg/kg, 15 min after administration
  decrease of heart rate: 19.3%
Normotensive rats; 20 mg/kg, 15 min post injection
  decrease of QTc: 9.6%
Normotensive rats; 20 mg/kg, 20 min after administration
  decrease of heart rate: 21.3%
Normotensive rats; 20 mg/kg, 20 min post injection
  decrease of QTc: 9.8%
Normotensive rats; 20 mg/kg, 30 min after administration
  decrease of heart rate: 22.3%
Normotensive rats; 20 mg/kg, 30 min post injection
  decrease of QTc: 10.5%
Normotensive rats; 20 mg/kg, 40 min after administration
  decrease of heart rate: 23.7%
Normotensive rats; 20 mg/kg, 40 min post injection
  decrease of QTc: 11.4%
Normotensive rats; 20 mg/kg, 50 min after administration
  decrease of heart rate: 24.6%
Normotensive rats; 20 mg/kg, 50 min post injection
  decrease of QTc: 9.6%
Normotensive rats; 20 mg/kg, 60 min after administration
  decrease of heart rate: 24.5%
Normotensive rats; 20 mg/kg, 60 min post injection
  decrease of QTc: 8.3%
Normotensive rats; 20 mg/kg, 80 min after administration
  decrease of heart rate: 24.1%
Normotensive rats; 20 mg/kg, 80 min post injection
  decrease of QTc: 12.8%
α1-adrenoceptor
  Adrenergic Receptors—pKi α1: 8.55
β1-adrenergic receptor; rat cortex tissue, [3H]-CGP-12177, read-out: Adrenergic Receptors—pKi β1 (converted)
  Ki: 3.02 µM
β1-adrenergic receptor; rat cortex, α1 vs β1
  affinity towards β1-adrenoceptor lower compared with the α1 receptor: > 1000 fold
